Among the data in US5948786A, “Piperidinylpyrimidine derivatives” (Sumitomo Pharmaceuticals Company, Limited, priority 1996, dated 1999) are inhibition values, retold here.

The experiment deals with TNF α production from mouse macrophages. Nature of the experiment: Inhibitory activity of compound on TNF α Production from mouse macrophages (LPS-induced PEC's). The format is cell-based. Particulars: Macrophage, LPS 10 μg/ml, 18 hours. The method, then:
BALB/c mice (female, 5-7 weeks old, Charles River Japan, Tokyo, Japan) were injected i.p. with 1 ml of 2.4% thioglycollate broth. After 4 days, the mice were sacrificed. Peritoneal exudated cells (PEC's) were collected from the peritoneal cavity by washing with minimum essential medium (MEM, Handai biseibutubyou kenkyukai, Osaka, Japan) containing 5 U/ml heparin, 1% fetal bovine serum (FBS, Filtron, Victoria, Australia) and antibiotics. The cells were washed two times with MEM, suspended with MEM containing 10% FBS (complete MEM, cMEM) and seeded into 96-well culture plates (Costar, Cambridge, Mass., USA) at 2×10^5 cells/well. The cells were incubated for 1 hour at 37° C. in a humidified 5% CO2 incubator and washed two times to remove non-adherent cells.
TNF α was induced by 10 μg/ml of LPS (E. coli O111B4, DIFCO, Detroit, Mich., USA) the cells were cultured for 18 hours at 37° C. A compound of the present invention was dissolved in DMSO and added to the culture simultaneously with LPS. The final DMSO concentration was below 0.1%. The TNF α concentration in supernatant and recombinant mouse TNF α standard (rm-TNF α, Genzyme, Mass., USA) were incubated overnight at 4° C. in a 96-well plate coated with anti-mouse TNF α monoclonal antibody (PharMingen, San Diego, Calif., USA) that previously had been blocked with 10% FBS. Each well of the plate first was incubated at room temperature with biotinylated anti-mouse TNF α polyclonal antibodies (PharMingen) for 45 minutes, then with peroxidase-conjugated streptavidin (Kirkegaard & Perry Laboratories Inc., Gaitherburg, Md., USA) for 30 minutes. After each incubation, the plate was washed 4 to 8 times with PBS containing 0.2% Tween 20. TMB (Kirkegaard & Perry Laboratories Inc.) was the peroxidase substrate used and, the absorbance of each well was quantified at 450 nm by a microplatereader (Molecular Devices Corp., CA, USA). TNF α levels in the supernatant were quantified with rm-TNF α as the standard.

The structures appear in SMILES notation.

Consider `CCCCCCCCCC(=O)N1CCC(c2cc(-c3ccccc3)nc(N)n2)CC1` [Example 138], for which the inhibition at 30 µM is 70%.

In turn, `Nc1nc(C2CCN(C(=O)c3ccc([N+](=O)[O-])cc3)CC2)c2ccccc2n1` [Example 40] had an inhibition at 30 µM of 15%.

As for `COc1ccc(Cc2cc(C3CCN(C(=O)Cc4cc(OC)cc(OC)c4)CC3)nc(N)n2)cc1` [Example 238], the inhibition at 30 µM stood at 96%.

The molecule `COc1ccc(Cc2cc(C3CCN(C(=O)Cc4ccc5c(c4)OCO5)CC3)nc(N)n2)cc1` [Example 243] had an inhibition at 30 µM of 93%.

For the molecule `Nc1nc(C2CCN(C(=O)c3ccncc3)CC2)c2ccccc2n1` [Example 51], at 30 µM the inhibition was 28%.

The molecule `CCCCCCCC(=O)N1CCC(c2nc(N)nc3ccccc23)CC1` [Example 21] displayed an inhibition at 30 µM of 74%.

`COc1ccc2nc(N)nc(C3CCN(C(=O)Cc4ccc([N+](=O)[O-])cc4)CC3)c2c1` [Example 126] had an inhibition at 30 µM of 43%.

With `CC(C)(C)OC(=O)NCCCCCCCC(=O)N1CCC(c2nc(N)nc3ccccc23)CC1` [Example 28, 2-amino-4-[1-(8-t-butoxycarbonylaminooctanoyl)-4-piperidinyl]quinazoline], 30 µM produced 100% inhibition.

Consider `COc1ccc(Cc2cc(C3CCN(C(=O)c4cccc(OC)c4OC)CC3)nc(N)n2)cc1` [Example 197], for which the inhibition at 30 µM amounted to 29%.

On to `COc1ccc(Cc2cc(C3CCN(C(=O)c4ccc(OC)cc4OC)CC3)nc(N)n2)cc1` [Example 198], for which 30 µM produced 29% inhibition.

Regarding `CCCCCCCCC(=O)N1CCC(c2cc(CCc3ccccc3)nc(N)n2)CC1` [Example 256], 30 µM produced 75% inhibition.

`CCCCCCCCCC(=O)N1CCC(c2cc(-c3ccc(Cl)cc3)nc(N)n2)CC1` [Example 149] gave an inhibition at 30 µM of 57%.

`COc1ccc(Cc2cc(C3CCN(C(=O)c4cccnc4)CC3)nc(N)n2)cc1` [Example 195] showed an inhibition at 30 µM of 29%.

In turn, `CCCCCCCC(=O)N1CCC(c2cc(Cc3ccc(Cl)cc3)nc(N)n2)CC1` [Example 247] returned an inhibition at 30 µM of 21%.

The molecule `Nc1nc(C2CCN(C(=O)NCc3ccccc3)CC2)c2ccccc2n1` [Example 280, 2-amino-4-(1-benzyl-carbamoyl-4-piperidinyl)quinazoline] yielded an inhibition at 30 µM of 34%.

Regarding `CCCCCCCC(=O)N1CCC(c2cc(-c3ccccc3)nc(N)n2)CC1` [Example 136], the inhibition at 30 µM amounted to 48%.

`Nc1nc(C2CCN(C(=O)Cc3ccc(Cl)cc3)CC2)c2ccccc2n1` [Example 82] returned an inhibition at 30 µM of 59%.

On to `Nc1nc(CCc2ccccc2)cc(C2CCN(C(=O)Cc3ccc(Cl)cc3)CC2)n1` [Example 262], for which the inhibition at 30 µM was determined as 43%.

In the case of `COc1ccc(Cc2cc(C3CCN(C(=O)c4ccc(OC)c(OC)c4)CC3)nc(N)n2)cc1` [Example 201], testing at 30 µM gave an inhibition of 46%.

`CCCCCCCCC(=O)N1CCC(c2cc(-c3ccccc3)nc(N)n2)CC1` [Example 137] yielded an inhibition at 30 µM of 67%.

Molecule `Nc1nc(C2CCN(C(=O)Cc3cccc(Cl)c3)CC2)c2ccccc2n1` [Example 81] showed an inhibition at 30 µM of 56%.

Turning to `COc1ccc(Cc2cc(C3CCN(C(=O)c4ccc([N+](=O)[O-])cc4)CC3)nc(N)n2)cc1` [Example 186], at 30 µM the inhibition was 67%.

Molecule `CCCCCCCCCCC(=O)N1CCC(c2nc(N)nc3ccccc23)CC1` [Example 24] displayed an inhibition at 30 µM of 70%.

Regarding `CCC(=O)N1CCC(c2cc(Cc3ccc(OC)cc3)nc(N)n2)CC1` [Example 163], the inhibition at 30 µM stood at 79%.

`COc1ccc(Cc2cc(C3CCN(C(=O)c4cccc(OC)c4)CC3)nc(N)n2)cc1` [Example 179] registered an inhibition at 30 µM of 82%.

`COc1ccc(Cc2cc(C3CCN(C(=O)OCc4ccccc4)CC3)nc(N)n2)cc1` [Example 274]: the inhibition at 30 µM was 49%.

On to `CCCCCCCC(=O)N1CCC(c2cc(-c3ccc(OC)cc3)nc(N)n2)CC1` [Example 154], for which the inhibition at 30 µM was found to be 86%.

`COc1ccc(Cc2cc(C3CCN(C(=O)c4cc(Cl)ccc4Cl)CC3)nc(N)n2)cc1` [Example 205] showed an inhibition at 30 µM of 51%.

Regarding `COc1ccc(Cc2cc(C3CCN(C(=O)Cc4ccc([N+](=O)[O-])cc4)CC3)nc(N)n2)cc1` [Example 233], 30 µM produced 54% inhibition.

With `COc1ccc(-c2cc(C3CCN(C(=O)c4ccccc4)CC3)nc(N)n2)cc1` [Example 5, 2-Amino-4-(1-benzoyl-4-piperidinyl)-6-(4-methoxyphenyl)pyrimidine], the inhibition at 30 µM was 57%.

In turn, `Nc1nc(C2CCN(C(=O)c3ccc(Cl)c(Cl)c3)CC2)c2ccccc2n1` [Example 62] yielded an inhibition at 30 µM of 55%.

`NCCCCCCCC(=O)N1CCC(c2nc(N)nc3ccccc23)CC1` [Example 285, 2-amino-4-[1-(8-aminooctanoyl)-4-piperidinyl]quinazoline] came in with an inhibition at 30 µM of 27%.

With `NCCCCCCC(=O)N1CCC(c2nc(N)nc3ccccc23)CC1` [Example 284, 2-amino-4-[1-(7-aminoheptanoyl)-4-piperidinyl]quinazoline], the inhibition at 30 µM stood at 3%.

Molecule `Nc1nc(C2CCN(C(=O)c3cc(Cl)ccc3Cl)CC2)c2ccccc2n1` [Example 60] displayed an inhibition at 30 µM of 73%.

Regarding `COc1ccc(Cc2cc(C3CCN(C(=O)c4ccccn4)CC3)nc(N)n2)cc1` [Example 194], the inhibition at 30 µM turned out to be 9%.

On to `Nc1nc(-c2ccc(Cl)cc2)cc(C2CCN(C(=O)Cc3ccc(Cl)cc3)CC2)n1` [Example 152], for which the inhibition at 30 µM was found to be 90%.

Turning to `COc1ccc(Cc2cc(C3CCN(C(=O)c4ccc(Cl)c(Cl)c4)CC3)nc(N)n2)cc1` [Example 207], the inhibition at 30 µM worked out at 76%.

The molecule `COc1ccc(Cc2cc(C3CCN(C(=O)c4cc(Cl)cc(Cl)c4Cl)CC3)nc(N)n2)cc1` [Example 218] had an inhibition at 30 µM of 55%.

As to `Nc1nc(CCc2ccccc2)cc(C2CCN(C(=O)Cc3ccc([N+](=O)[O-])cc3)CC2)n1` [Example 263], 30 µM produced 37% inhibition.

Regarding `Nc1nc(C2CCN(S(=O)(=O)Cc3ccccc3)CC2)c2ccccc2n1` [Example 272], the inhibition at 30 µM was 5%.

`CCCCCCCC(=O)N1CCC(c2cc(CCc3ccccc3)nc(N)n2)CC1` [Example 255] displayed an inhibition at 30 µM of 47%.

Take `CC(C)(C)OC(=O)NCCCCCCC(=O)N1CCC(c2nc(N)nc3ccccc23)CC1` [Example 27, 2-amino-4-[1-(7-t-butoxycarbonylaminoheptanoyl)-4-piperidinyl]quinazoline]: testing at 30 µM gave an inhibition of 95%.

`CCCCCCC(=O)N1CCC(c2nc(N)nc3ccccc23)CC1` [Example 20] returned an inhibition at 30 µM of 63%.

Regarding `Nc1nc(Cc2ccc(Cl)cc2)cc(C2CCN(C(=O)c3ccccc3)CC2)n1` [Example 7, 2-Amino-4-(1-benzoyl-4-piperidinyl)-6-(4-chlorophenylmethyl)pyrimidine], the inhibition at 30 µM is 58%.

In the case of `Nc1nc(C2CCN(C(=O)Cc3ccc([N+](=O)[O-])cc3)CC2)c2cc(Cl)ccc2n1` [Example 133], the inhibition at 30 µM is 35%.

As to `CCCCCCCC(=O)N1CCC(c2nc(N)nc3ccc(Cl)cc23)CC1` [Example 127], the inhibition at 30 µM came to 48%.

The molecule `COc1ccc2nc(N)nc(C3CCN(C(=O)Cc4ccc(Cl)cc4)CC3)c2c1` [Example 123] yielded an inhibition at 30 µM of 28%.

Consider `Nc1nc(C2CCN(C(=O)OCc3ccccc3)CC2)c2ccccc2n1` [Example 269], for which the inhibition at 30 µM worked out at 77%.
